In patent US20230109717A1 (GAIA BioMedicine Inc., priority 2020, published 2023):
Entries after “also recorded” stand apart in the source; their conditions may differ.

Tests used:
[1] = tested on: highly active NK cells; assay: Viable cell count and recovery rate of highly active NK cells after thawing, based on cell number at freezing; design: species or system human
Description: After the thawing, all the dilution and incubation operations were performed on a low-absorption 6-well plate.
The cells of the groups diluted in the media were incubated overnight at 37° C. under 5% CO2, and then the numbers of viable cells were counted. The experimental conditions are summarized below.
The NK cells obtained by the collection method 1 were suspended in PBS, and incubated at room temperature for 1 hour. The NK cells obtained by the collection method 2 were suspended in (1) the KBM501 medium, (2) KBM501 medium containing 30 μM 4-phenylbutyric acid, (3) KBM501 medium containing 30 μM tauroursodeoxycholic acid dihydrate (TUDCA, Tokyo Kasei Kogyo, T1567), and (4) KBM501 medium containing 30 μM 4-phenylbutyric acid and 30 μM TUDCA, and incubated at 37° C. for 2 hours under 5% CO2. […] After 1 hour, the cells were gently suspended, and number of viable cells was counted. After another 5-fold dilution in the KBM501 medium and incubation at 37° C. for 2 hours under 5% CO2, number of viable cells was counted, and the recovery rate based on the number of cells at the time of freezing was calculated.
(§1) After 1 and 3 hours, the cells were gently suspended, and viable cells were counted. In addition, after 1 hour, the cells were diluted 5-fold in the KBM501 medium, and incubated at 37° C. for 2 hours under 5% CO2, and viable cell were counted. Recovery rate of viable cells after the thawing based on the cell number at the time of freezing was calculated using the number of viable cells at each time point.
as §1, with “on the basis of” for “using”, “point after the thawing.” for “point.”

[2] = tested on: SKOV3 sphere; assay: Evaluation of thawed highly active NK cells in a solid tumor model (3D killing assay); format: cell-based, human; settings: added before freezing at 800 μM (preferable between 2,400 μM and 267 μM)
Description: To one of SKOV3 sphere inoculated beforehand in each well of a […] plate, 50 μL of the prepared NK cells were added, and allowed to react for 4 days at 37° C. under 5% CO2. Then, the cells were detached with Accutase, collected, and cultured in the RPMI medium on a 24-well plate for expansion. After 17 days of the expansion culture at 37° C. under 5% CO2, the cells were fixed with 4% PFA, stained with DAPI, and observed under a fluorescence microscope (BZ-9000, KEYENCE), and BZ-II Analysis Application was used to quantify the area of SKOV3 that was not injured by the NK cells.
The SKOV3 cells (human ovarian cancer cell line) were prepared at a density of 3×10^4 cells/mL in 10% FBS/RPMI 1640, and inoculated onto a 96-well plate in an amount of 3×10^3 cells/100 μL per well. Spheres were prepared by incubating the cells at 37° C. for 3 days under 5% CO2.

[3] = tested on: K562 cells; assay: Cytotoxic activity rate (% Lysis) of freeze-thawed highly active NK cells against K562 cells; format: cell-based; settings: for Activity: Exmp. 7, collect. method 2
Description: Cytotoxic activity can be expressed as the percentage of target cells killed by effector cells, and is calculated in accordance with the following equation.
(Cell death observed in co-culture with effector cells−Spontaneous cell death (negative control))/(Maximum cell death (positive control)−Spontaneous cell death (negative control))×100
For the measurement of cytotoxic activity, a group of the K562 cells reacted with the NK cells, a group consisting solely of the K562 cells as a negative control, and a group of the K562 cells fixed with 10% formalin as a positive control were prepared.
After incubation for the times indicated for the groups, the cells were collected, and prepared at a density of 2×10^6 cells/mL in 10% FBS/RPMI 1640.
The K562 cells (human chronic myelogenous leukemia cell line) were suspended in serum-free RPMI 1640 medium, stained with PKH26 Red Fluorescent Cell Linker Kit (Sigma, PKH26GL-1KT), and finally prepared at a density of 2×10^6 cells/mL in 10% FBS/RPMI 1640.
The NK cells and K562 cells were added and mixed in wells of 96-well plate (IWAKI, 4870-800SP) at a cell ratio of 1:1, and allowed to react at 37° C. for 2 hours under 5% CO2. After the reaction, the plate was centrifuged (500×g, 5 minutes), and the supernatant was removed. Then, a 7-AAD solution diluted with PBS was added to the cells to suspend the cells, and the suspension was incubated at room temperature for 20 minutes. […]
For the measurement of cytotoxic activity, a group of the NK cells reacted with the K562 cells, a group solely consisting of the K562 cells as a negative control, and a group of the K562 cells fixed with 10% formalin as a positive control were prepared.
The cells were thawed and diluted by the method described above, and a necessary amount of the cells were taken on the basis of the number of viable cells at the time of freezing, and then prepared at a density of 2×10^6 cells/mL in 10% FBS/RPMI 1640.
The K562 cells were suspended in serum-free RPMI 1640 medium, stained with PKH26 Red Fluorescent Cell Linker Kit, and then prepared at a density of 2×10^6 cells/mL in 10% FBS/RPMI 1640. […]
For the measurement of cytotoxic activity, a group of NK cells reacted with K562 cells, a group of K562 cells only as a negative control, and a group of K562 cells fixed with 10% formalin as a positive control were prepared. […]
(9-2) Cytotoxic activity was measured in the same manner as described in the section of (9-1), but after thawing and dilution, the cells were left to stand for up to 6 hours, and cytotoxic activity was measured by the method described in the section b) mentioned above at the time points of 2, 5, and 6 hours. In detail, the NK cells and K562 cells were added to each well of a 96-well plate (IWAKI, 4870-800SP) at a cell ratio of 1:1, mixed, and then allowed to react at 37° C. for 2 hours under 5% CO2.

C[C@H](CCC(=O)NCCS(=O)(=O)O)[C@H]1CC[C@H]2[C@@H]3[C@@H](O)C[C@@H]4C[C@H](O)CC[C@]4(C)[C@H]3CC[C@]12C [TUDCA, tauroursodeoxycholic acid dihydrate]
Recovery rate ([1]; added before freezing at 800 μM (preferable between 2,400 μM and 267 μM)): higher recovery rate | Recovery rate after the thawing ([1]; pretreatment 2 hours with KBM501 medium supplemented with 30 μM additive before freezing, Example 5): improved | Recovery rate after thawing ([1]; pretreatment with KBM501 medium supplemented at various concentrations (266 to 2400 μM), Example 7): improved | Recovery rate after the thawing ([1]; pretreatment with KBM501 medium supplemented with various concentrations (10 to 810 μM), Example 6): improved | Killing activity against the solid tumor model [2]: higher killing activity | Activity ([3]; pretreatment KBM + 266 μM TUDCA 2 h, thawing PlasmaLyte + IL-2, R.T. 1 h): A (A means 70% or higher) | Activity ([3]; pretreatment KBM + 266 μM TUDCA 2 h, thawing PlasmaLyte + IL-2, R.T. 1 h, then KBM 2 h): A (A means 70% or higher) | Activity ([3]; pretreatment KBM + 266 μM TUDCA 2 h, thawing PlasmaLyte + IL-2, R.T. 3 h): A (A means 70% or higher) | Activity ([3]; pretreatment KBM + 266 μM TUDCA 2 h, thawing PlasmaLyte R.T. 1 h): A (A means 70% or higher) | Activity ([3]; pretreatment KBM + 266 μM TUDCA 2 h, thawing PlasmaLyte R.T. 1 h, then KBM 2 h): A (A means 70% or higher) | Activity ([3]; pretreatment KBM + 266 μM TUDCA 2 h, thawing PlasmaLyte R.T. 3 h): A (A means 70% or higher) | Activity ([3]; pretreatment KBM + 800 μM TUDCA 2 h, thawing PlasmaLyte + IL-2, R.T. 1 h): A (A means 70% or higher) | Activity ([3]; pretreatment KBM + 800 μM TUDCA 2 h, thawing PlasmaLyte + IL-2, R.T. 1 h, then KBM 2 h): A (A means 70% or higher) | Activity ([3]; pretreatment KBM + 800 μM TUDCA 2 h, thawing PlasmaLyte + IL-2, R.T. 3 h): A (A means 70% or higher) | Activity ([3]; pretreatment KBM + 800 μM TUDCA 2 h, thawing PlasmaLyte R.T. 1 h): A (A means 70% or higher) | Activity ([3]; pretreatment KBM + 800 μM TUDCA 2 h, thawing PlasmaLyte R.T. 1 h, then KBM 2 h): A (A means 70% or higher) | Activity ([3]; pretreatment KBM + 800 μM TUDCA 2 h, thawing PlasmaLyte R.T. 3 h): A (A means 70% or higher) | Activity ([3]; pretreatment KBM + 2400 μM TUDCA 2 h, thawing PlasmaLyte + IL-2, R.T. 1 h): A (A means 70% or higher) | Activity ([3]; pretreatment KBM + 2400 μM TUDCA 2 h, thawing PlasmaLyte + IL-2, R.T. 1 h, then KBM 2 h): A (A means 70% or higher) | Activity ([3]; pretreatment KBM + 2400 μM TUDCA 2 h, thawing PlasmaLyte + IL-2, R.T. 3 h): A (A means 70% or higher) | Activity ([3]; pretreatment KBM + 2400 μM TUDCA 2 h, thawing PlasmaLyte R.T. 1 h): A (A means 70% or higher) | Activity ([3]; pretreatment KBM + 2400 μM TUDCA 2 h, thawing PlasmaLyte R.T. 1 h, then KBM 2 h): A (A means 70% or higher) | Activity ([3]; pretreatment KBM + 2400 μM TUDCA 2 h, thawing PlasmaLyte R.T. 3 h): A (A means 70% or higher) | Cytotoxic activity of frozen and thawed highly active NK cells ([3]; pretreatment 2 hours, 10 to 810 μM, Plasma-Lyte A after thawing, 1 and 3 hours, K562, E:T 2:1, 2 hours, Example 6, dihydrate): Improvement of the cytotoxic activity; also recorded: improved in a TUDCA concentration-dependent manner
